One series addresses T1, PKL (Homo sapiens, UniProt P30613).
T1 construct: purchased BPS Bioscience
Briefly: In vitro pyruvate kinase assay (Kinase-Glo Max luminescence), PKL. The class given is biochemical. The settings on record: for PKL IC50: 0.1 mM ADP, 0.125 mM PEP, rt 30 min, Inactive = less than 30% inhibition at 10 µM; for Change of PKL inhibitory activity relative to Uro D (5): removal of one hydroxyl group from 5. The source says: (§1) In the absence of the compound, the intensity (Ce) in each data set was defined as 100% activity.

In another series the target is T2, PKR (Homo sapiens, UniProt P30613).
T2 construct: purchased BPS Bioscience
The experiment in a line: In vitro pyruvate kinase assay (Kinase-Glo Max luminescence), PKR. The class given is biochemical. As to conditions: for PKR IC50: 0.1 mM ADP, 0.125 mM PEP, rt 30 min, Inactive = less than 30% inhibition at 10 µM.
Text: as §1
For orientation: Kinase-Glo reads ATP consumption through a luciferase reaction.

The next series has as its target PKM1 (Homo sapiens, UniProt P14618). Briefly: In vitro pyruvate kinase assay, PKM1. The format is biochemical.
Text: as §1

The target of the next series is PKM2 (Homo sapiens, UniProt P14618). The experiment in a line: In vitro pyruvate kinase assay, PKM2. The format is biochemical. As to conditions: printed in the PKM2 IC50 column; footnote a: value refers to EC50; read-out: PKM2 EC50 (compound behaves as an activator).
Text: as §1

The record followed here is paper PMC9919951, “Ellagic Acid and Its Metabolites as Potent and Selective Allosteric Inhibitors of Liver Pyruvate Kinase” (Nutrients, 2023).

Entries after “also recorded” stand apart in the source; their conditions may differ.

Chain of PKM2 (P14618 whole entry): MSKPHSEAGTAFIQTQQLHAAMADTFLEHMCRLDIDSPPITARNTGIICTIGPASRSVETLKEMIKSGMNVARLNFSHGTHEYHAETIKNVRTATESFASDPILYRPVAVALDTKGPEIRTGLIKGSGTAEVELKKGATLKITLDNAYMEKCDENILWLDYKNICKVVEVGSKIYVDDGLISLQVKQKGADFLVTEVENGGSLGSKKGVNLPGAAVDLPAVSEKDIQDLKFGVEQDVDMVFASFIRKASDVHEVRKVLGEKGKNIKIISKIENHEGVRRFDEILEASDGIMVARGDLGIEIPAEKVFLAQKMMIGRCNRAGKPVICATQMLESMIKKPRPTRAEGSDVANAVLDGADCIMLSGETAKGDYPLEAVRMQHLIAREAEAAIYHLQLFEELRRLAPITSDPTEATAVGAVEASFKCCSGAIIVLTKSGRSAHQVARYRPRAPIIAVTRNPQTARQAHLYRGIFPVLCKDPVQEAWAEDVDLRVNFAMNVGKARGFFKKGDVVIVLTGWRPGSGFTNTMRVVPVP
T1 sequence (P30613 1-543 isoform P30613-2): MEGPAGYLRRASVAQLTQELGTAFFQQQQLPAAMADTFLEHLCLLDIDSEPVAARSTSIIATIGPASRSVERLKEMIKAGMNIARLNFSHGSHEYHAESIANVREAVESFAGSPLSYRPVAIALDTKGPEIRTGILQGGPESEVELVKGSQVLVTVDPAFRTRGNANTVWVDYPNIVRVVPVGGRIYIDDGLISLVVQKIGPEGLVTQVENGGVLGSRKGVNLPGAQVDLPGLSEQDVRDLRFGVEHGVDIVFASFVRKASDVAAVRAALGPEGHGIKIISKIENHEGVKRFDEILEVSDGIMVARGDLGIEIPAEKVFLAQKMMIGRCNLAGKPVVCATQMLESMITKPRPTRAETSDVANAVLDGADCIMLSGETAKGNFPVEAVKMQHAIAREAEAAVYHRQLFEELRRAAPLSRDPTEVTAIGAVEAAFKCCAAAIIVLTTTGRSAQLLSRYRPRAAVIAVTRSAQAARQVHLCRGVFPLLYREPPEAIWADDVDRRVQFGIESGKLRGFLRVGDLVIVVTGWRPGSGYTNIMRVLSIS
T2 sequence (P30613 whole entry): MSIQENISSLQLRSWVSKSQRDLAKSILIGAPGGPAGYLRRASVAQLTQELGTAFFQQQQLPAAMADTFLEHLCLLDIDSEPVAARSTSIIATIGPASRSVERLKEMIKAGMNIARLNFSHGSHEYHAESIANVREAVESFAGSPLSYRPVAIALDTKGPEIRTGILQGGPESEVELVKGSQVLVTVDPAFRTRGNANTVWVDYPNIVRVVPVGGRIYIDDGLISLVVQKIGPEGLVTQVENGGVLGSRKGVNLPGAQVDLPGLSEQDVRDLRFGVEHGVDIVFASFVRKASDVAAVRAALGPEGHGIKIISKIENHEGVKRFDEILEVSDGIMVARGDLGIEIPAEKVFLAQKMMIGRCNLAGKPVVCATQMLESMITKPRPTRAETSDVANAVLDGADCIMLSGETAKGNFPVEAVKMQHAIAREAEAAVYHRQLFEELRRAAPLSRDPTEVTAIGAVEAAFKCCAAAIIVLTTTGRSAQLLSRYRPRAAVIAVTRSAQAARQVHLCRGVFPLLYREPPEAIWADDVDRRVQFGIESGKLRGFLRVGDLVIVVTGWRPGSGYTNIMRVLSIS
Chain of PKM1 (P14618 1-531 isoform P14618-2): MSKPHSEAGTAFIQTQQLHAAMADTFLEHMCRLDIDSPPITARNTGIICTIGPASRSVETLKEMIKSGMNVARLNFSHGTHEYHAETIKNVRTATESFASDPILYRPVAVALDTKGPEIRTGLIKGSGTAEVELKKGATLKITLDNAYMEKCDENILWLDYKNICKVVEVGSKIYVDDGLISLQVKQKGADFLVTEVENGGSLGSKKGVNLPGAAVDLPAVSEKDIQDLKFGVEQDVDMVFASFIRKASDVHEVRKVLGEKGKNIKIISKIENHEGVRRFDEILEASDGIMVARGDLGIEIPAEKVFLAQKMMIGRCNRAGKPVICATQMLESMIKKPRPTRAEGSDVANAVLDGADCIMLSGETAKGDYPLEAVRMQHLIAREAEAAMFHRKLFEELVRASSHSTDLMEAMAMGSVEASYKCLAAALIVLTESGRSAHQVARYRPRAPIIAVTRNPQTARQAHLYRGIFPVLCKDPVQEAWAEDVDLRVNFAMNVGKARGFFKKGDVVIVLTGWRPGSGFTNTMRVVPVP

As for `O=c1oc2c(O)c(O)cc3c(=O)oc4c(O)c(O)cc1c4c23` [Compound 1, ellagic acid], the figures for the IC50 at PKL, at PKR and against PKM1 were 32 nM, 4.7 µM and 81 µM, respectively. The “Mode of PKL inhibition” value at PKL (different concentrations of ADP, activity independent of substrate concentration) is recorded as “non-competitive allosteric inhibitor”. Also, on PKM2, the EC50 – broadly, the concentration that produces a half-maximal response – worked out at 70 nM.
Consider `O=c1cc(-c2ccc(O)c(O)c2)oc2cc(O)cc(O)c12` [Compound 2, luteolin], for which the values for the IC50 against PKL and on PKR were 12000 nM and greater than 100 µM, respectively.
Regarding `Oc1cc(O)c2cc(O)c(-c3ccc(O)c(O)c3)[o+]c2c1` [Compound 3, cyanidin], the IC50 (as a rule, the point on the concentration scale where inhibition reaches its midpoint) was found to be 2100 nM against PKL and 7.4 µM against PKR.
Turning to `O=c1oc2c(O)c(O)ccc2c2cc(O)c(O)cc12` [Compound 5, urolithin D], the values for the IC50 against PKL, against PKR and on PKM1 were 28 nM, 1.27 µM and 36 µM, respectively. The EC50 on PKM2 stood at 30 nM.
Take `O=c1occc2cc(O)c(O)cc12` [Compound 6, 6,7-dihydroxy-1H-isochromen-1-one]: the melting point (usually the temperature of the solid-liquid transition) fell in the range of 265 to 267 °C. Also, the “PKL IC50” value on PKL was “Inactive ^b”. At PKR, the “PKR IC50” value is “Inactive ^b”.
On to `O=c1ccc2ccc(O)c(O)c2o1` [Compound 7], for which the “PKL IC50” value on PKL is given as “Inactive ^b”. Moreover, the “PKR IC50” value on PKR is “Inactive ^b”.
Take `Oc1ccc(-c2ccc(O)c(O)c2O)c(O)c1O` [Compound 8, [1,1’-Biphenyl]-2,2’,3,3’,4,4’-hexaol]: the melting point is greater than 350 °C. The same compound had an IC50 at PKL of 3500 nM. On PKR, this compound displayed an IC50 of 12 µM.
On to `Oc1ccc(-c2ccc(O)c(O)c2)cc1O` [Compound 9, [1,1’-biphenyl]-3,3’,4,4’-tetraol], for which the IC50 amounted to 2400 nM on PKL and 5.1 µM against PKR.
Consider `O=c1oc2cc(O)ccc2c2cc(O)c(O)cc12` [Compound 10, 3,8,9-trihydroxy-6H-benzo[c]chromen-6-one], for which the concentration for half-maximal inhibition (IC50) against PKL stood at 410 nM; on PKR it was 2.6 µM. Also, at PKL, the “Change of PKL inhibitory activity relative to Uro D (5)” value was “reduced by approximately one order of magnitude”.
As to `O=c1oc2cc(O)ccc2c2ccc(O)cc12` [Compound 11, Urolithin A], the “PKL IC50” value on PKL was “no inhibition was observed; also recorded: Inactive ^b”. Also, at PKR, the “PKR IC50” value is given as “Inactive ^b”.
On to `O=c1oc2cc(O)ccc2c2ccccc12` [Compound 12, Urolithin B], for which the “PKL IC50” value on PKL is recorded as “no inhibition was observed; also recorded: Inactive ^b”. Also, at PKR, the “PKR IC50” value is “Inactive ^b”.
`O=c1oc2c(O)cccc2c2cc(O)c(O)cc12` [Compound 13, 4,8,9-Trihydroxy-6H-benzo[c]chromen-6-one]: the melting point was in the range of 345 to 347 °C. Also, at PKL, the IC50 was 3900 nM and the “Change of PKL inhibitory activity relative to Uro D (5)” value is recorded as “hundred-fold reduction in activity”. At PKR, this compound yielded an IC50 of 43 µM.
As for `O=c1oc2c(O)c(O)ccc2c2cc(O)ccc12` [Compound 14, 3,4,9-Trihydroxy-6H-benzo[c]chromen-6-one], the values for the IC50 against PKL and against PKR were 2100 nM and 68 µM, respectively.
As for `O=c1oc2c(O)c(O)ccc2c2ccc(O)cc12` [Compound 15, 3,4,8-Trihydroxy-6H-benzo[c]chromen-6-one], at PKL, it took 1700 nM to reach half-maximal inhibition (IC50) and the “Change of PKL inhibitory activity relative to Uro D (5)” value is listed as “dramatically reduced inhibitory activity”. On PKR, this compound returned an IC50 greater than 100 µM.
For `O=C(COP(=O)(O)O)[C@@H](O)[C@H](O)[C@H](O)COP(=O)(O)O` [FBP, Fructose-1,6-biphosphate, reference compound], the EC50 on PKL (printed in the PKL IC50 column, footnote a: value refers to EC50, read-out: PKL EC50 (compound behaves as an activator)) was 20 nM; on PKR (printed in the PKR IC50 column, footnote a: value refers to EC50, read-out: PKR EC50 (compound behaves as an activator)) it was 10 nM; on PKM2, 50 nM. On PKM1, the “PKM1 IC50” value is listed as “Inactive”.
